Test results published in US9802884B2, “Mixtures of MGDA enantiomers, and process for making such mixtures” (BASF SE, priority 2013, dated 2017).
Like-named read-outs stand apart in the source and are kept apart here.

Assays:
[1] = ambient temperature
Protocol: The following tolerance tests were performed: 25 g of a 40% by weight aqueous solution of the respective inventive mixture (or of racemic MGDA) were mixed under one hour of stirring with the amount of solid NaOH beads according to table 5. The mixture so obtained was stored at ambient temperature over the period of up to 96 hours. Then, the appearance was characterized by visual inspection.

[2] = minimum temperature for forming a kinetically stable 50% by weight solution, cooled 30° C./h to precipitation, reheated 1° C./h until clear, higher Tsol = lower solubility
Protocol: In each case, the solubility was calculated to refer to pure MGDA, without hydrate water. The solubility of inventive mixtures and of comparison experiments was determined with an apparatus that allowed heating and cooling down liquid solutions. […] Then, the slurry of crystals of MGDA so obtained was again heated at a speed of 1° C./h until a clear solution was obtained. The slurry/solution was checked for solid particles by visible light scattering detection. […] A higher temperature Tsol correlates with a lower solubility at ambient temperature.

[3] = aqueous solution, room temperature; cited from earlier work
[4] = NaOH added 0 g to 25 g of 40% by weight aqueous solution
[5] = NaOH added 0.5 g to 25 g of 40% by weight aqueous solution
[6] = NaOH added 1.0 g to 25 g of 40% by weight aqueous solution
[7] = NaOH added 1.5 g to 25 g of 40% by weight aqueous solution, * = after 48 hours
[8] = NaOH added 2.0 g to 25 g of 40% by weight aqueous solution, * = after 48 hours
[9] = NaOH added 2.5 g to 25 g of 40% by weight aqueous solution, ** = immediately after addition of NaOH

| Compound | Appearance of test solutions after 96 h of storage [1, 4] | Appearance of test solutions after 96 h of storage [1, 5] | Appearance of test solutions after 96 h of storage [1, 6] | Appearance of test solutions after 96 h of storage [1, 7] | Appearance of test solutions after 96 h of storage [1, 8] | Appearance of test solutions after 96 h of storage [1, 9] | further results |
| --- | --- | --- | --- | --- | --- | --- | --- |
| CC(C(=O)[O-])N(CC(=O)[O-])CC(=O)[O-].[Na+].[Na+].[Na+] (stereo not shown) [MGDA: 50% ee, methyl glycine diacetic acid (MGDA)] | clear liquid | clear liquid | clear liquid | clear liquid | clear liquid | clear liquid | Tsol ([2]; listed as 50.0): 68.1 °C |
| CC(C(=O)[O-])N(CC(=O)[O-])CC(=O)[O-].[Na+].[Na+].[Na+] (stereo not shown) [ee value 20.0, methyl glycine diacetic acid (MGDA)] | – | – | – | – | – | – | Tsol ([2]; listed as 20.0): 74.0 °C |
| CC(C(=O)[O-])N(CC(=O)[O-])CC(=O)[O-].[Na+].[Na+].[Na+] (stereo not shown) [ee value 70.0, methyl glycine diacetic acid (MGDA)] | – | – | – | – | – | – | Tsol ([2]; listed as 70.0): 59.5 °C |
| CC(C(=O)[O-])N(CC(=O)[O-])CC(=O)[O-].[Na+].[Na+].[Na+] (stereo not shown) [ee value 10.1, methyl glycine diacetic acid (MGDA)] | – | – | – | – | – | – | Tsol ([2]; listed as 10.1): 74.5 °C |
| CC(C(=O)[O-])N(CC(=O)[O-])CC(=O)[O-].[Na+].[Na+].[Na+] (stereo not shown) [ee value 97.7, methyl glycine diacetic acid (MGDA), reference compound] | – | – | – | – | – | – | Tsol ([2]; listed as 97.7): 37.0 °C |
| CC(C(=O)[O-])N(CC(=O)[O-])CC(=O)[O-].[Na+].[Na+].[Na+] (racemic) [Racemic MGDA, methyl glycine diacetic acid (MGDA), reference compound] | clear liquid | clear liquid | clear liquid | turbid* liquid | turbid* liquid | turbid, precipitate** | concentration of solution that can be made and stored [3]: about 40 % by weight; Tsol ([2]; listed as zero): 103.8 °C |
